Experimental data as given in patent US12496298B2, “Natural killer cells” (Imperial College Innovations Limited, priority 2017, dated 2025).

Test system: Human CD34+ cells
Assay: In vitro development of human NK cells (hCD56+ hCD45+) from CD34+ umbilical cord blood progenitor cells
Format: cell-based
Experimental: FIG. 9: Human CD34^+ cells were cultured with the addition of 5 μM SR8278 at Day 4. At Day 14 and 16, percentage of hCD56^+ hCD45^+ (markers for human NK cells) cells was quantified using flow cytometry. (A) Graph showing percentage of hCD56^+ hCD45^+ cells compared to the ‘No drug’ control in different conditions. (B) Flow cytometry gating strategy for identification of human NK cells. (C) Representative flow cytometry results with percentage of NK cells shown. Results were averaged from one experiments with six repeats each and the error bars represent the mean+SD.
The hypothesis that SR8278 increases NK cells production would not have any potential therapeutic value if it was not also true for human NK cell production. Therefore, the effect of SR8278 on human NK cell production from human HPCs was examined. Human HPCs were obtained as the CD34^+ population purified from umbilical cord blood from collaborators at the Anthony Nolan Research Institute, London. Human NK cell development goes through a similar developmental pathway to mouse NK cell development. By contrast with mouse HPC culture, human CD34^+ cells were cultured straight onto EL08-1D2 stromal cells in the presence of IL-3, IL-7, FIt3L, SCF and IL-15 cytokines for 14 and 16 days before harvesting and analysis by flow cytometry. To try to optimise human NK cell production, 5 or 10 μM SR8278 were added on either day 2, 4 or 6 of the culture.
OP9-GFP stromal cells were cultured in Iscove's Modified Dulbecco's Media (IMDM) (Sigma Aldrich) supplemented with 20% Fetal Bovine Serum (FBS), and Penicillin/[…] (P/S). For experiments done on 96-well plates, OP9 stromal cells were plated at the concentration of 2000 cells/well and incubated at 37° C., 5% CO2 for 1 day before the addition of HPCs. For experiments done on 24-well plates, OP9 stromal cells were plated at the concentration of 4000 cells/well and were incubated at 37° C. 5% CO2 for 2 days prior to addition of HPCs. EL08.1D2 stromal cells were cultured in Minimum Essential Medium Eagle—Alpha Modification (Alpha-MEM) supplemented with 50% Myelocult M5300 (Stem Cell Technologies), 7.5% FBS, 50 μM β-Mercaptoethanol, 1 μM Hydrocortisone and 1% P/S (Sigma Aldrich). For human CD34^+ progenitor cell experiments, EL08.1D2 were irradiated at 3000 rads/30 Gy and plated in 96-well EmbryoMax Gelatin (Millipore)-coated plates at the concentration of 20,000 cells/well. There were cultured at 32° C., 5% CO2 overnight, before CD34^+ cells were transferred onto them.
CD34^+ umbilical cord blood progenitor cells were provided by Anthony Nolan Research Institute, University College London. These cells were isolated from whole cord blood and were cryopreserved in liquid nitrogen for storage and transport. Cells were thawed, counted and then plated on EL08.1D2 plates prepared previously at a concentration of 1000 cells/well in human NK cells differentiation medium (Alpha-MEM plus 20% Human AB serum (Invitrogen), 50 μM β-Mercaptoethanol and 1% P/S along with 5 ng/ml human-IL-3 (Peprotech), 20 ng/ml human-IL-7 (Peprotech), 10 ng/ml human-Flt3-L (Peprotech), 20 ng/ml human-SCF (Peprotech) and 10 ng/ml human-IL-15 (Peprotech). Note that human-IL-3 is only needed for the first week of culture. Cells were left in the culture at 37° C., 5% CO2 for 14 or 16 days with a change of human NK differentiation medium at day 7 and 12.
Cells to be analysed by flow cytometry were passed through 40 μm cell strainers to remove clumps and washed with PBS buffer, centrifuged at 800 g for 2 minutes and resuspended in 100 μl fluorescent activated cell sorting (FACS) buffer (PBS plus 1% BSA) with appropriate fluorochrome conjugated antibodies at a dilution of 1 in 300. […]

CCOC(=O)C1Cc2ccccc2CN1C(=O)c1ccc(SC)s1 (stereo not drawn) [SR8278, 1,2,3,4-Tetrahydro-2-[[5-(methylthio)-2-thienyl]carbonyl]-3-isoquinolinecarboxylic acid ethyl ester]
change of percentage of NK cells versus 'No drug' control (5 μM added at Day 4, harvested at Day 14): almost tripled
percentage of NK cells (5 μM added at Day 4, harvested at Day 14, 'No drug' control 5.53%): 13.7%
change of percentage of NK cells versus 'No drug' control (5 μM added at Day 4, harvested at Day 16): doubled
percentage of NK cells (5 μM added at Day 4, harvested at Day 16, 'No drug' control 21.8%): 44.3%
NK cell number (5 μM added on Day 2): clear increase
human NK cell development from human HPCs cultured in vitro (summary in Discussion): significantly increase
